For one test, the system named is β4 integrin subunit. The test is described as follows: Affinity purification of liver metastasis lysates on column-immobilized peptide, ELISA and phage binding of fractions. The note with it: lysates of human liver metastases, in comparison with the controls; FIG. 8. Here is the method:
(FIG. 8A, FIG. 8B) Isolation of […]- (SEQ ID NO: 14) targeted integrin partners. To identify the molecular partner of α6 integrin in the peptide-targeted complex, synthetic […] (SEQ ID NO. 14) was immobilized on column-packed diaminodipropylamine-agarose and successively loaded with 30 mg of total protein from 7 pooled liver metastases secondary to CRCs. Protein fractions were collected after sequential incubation with high salt buffer (for the elution of unspecific proteins), CARAC-peptide (SEQ ID NO. 43) (as a negative control) and […]-peptide (SEQ ID NO. 14) (target elution). Protein amounts in collected fractions were followed by reading their OD at 280 nm (FIG. 8A). […] Control (salt, control peptide) and targeted ([…]—1, —2, and —6) (SEQ ID NO. 14) protein fractions (500 ng each) were evaluated for the presence of specific integrin subunits by an ELISA assay (FIG. 8D).
For the characterization of proteins targeted by […] […] Protein amounts in collected fractions were followed by reading their OD at 280 nm, and selected fractions were concentrated by the use of Microcon centrifugal filter devices with cut-off 10,000 (Millipore) to remove residual synthetic peptides. Proteins were quantified with the Coomassie (Bradford) Protein Assay Kit (Pierce), and 500 ng of each sample was evaluated for the presence of specific integrin subunits with a standard ELISA assay. […]
(In general: ELISA stands for enzyme-linked immunosorbent assay.)

Test [1] has as its system NCI-H630 cells in which ITGA6, CDH1 or both mRNAs were silenced. In words: Cell adhesion to microwells coated with peptides and proteins. The class given is cell-based, human. The procedure:
(§1) (FIG. 10A, […]) The receptor side: α6 integrin and E-cadherin are involved in the adhesion of metastatic CRC cells to the liver. HepG2 and NCI-H630 cells were incubated on 10-μm frozen sections of grossly normal human liver and adhered cells were fixed, stained and counted under a light microscope at 20× magnification. Photomicrographs representative of cell numbers (120 minutes' incubation) and morphology (5 days' incubation) are shown. The dotted line indicates a micrometastasis-like structure integrated into the hepatic tissue; arrowheads point to cell aggregates. Tissues were counterstained with hematoxylin (FIG. 10A). […] The same cells were evaluated for their capacity to adhere to the […] […] After 48 hours, cells on the lower side of the transwell membranes were fixed, stained and counted under a light microscope at 5× magnification. […] (SEQ ID NO: 14) or control peptide; after 30 minutes, adhered cells were fixed, stained and counted under a light microscope at 5× magnification. For NCI-H630, adhesion was evaluated on liver sections from 27 patients (Patient Ids: P29, P30, P33, P34, P35, P36, P56-76) and results are shown as the ratio of attached cells in the presence of […] […] In FIG. 10A-D, FIG. 10F and FIG. 10G, differences in the experimental points were evaluated for their statistical significance by the use of ANOVA followed by Bonferroni's post-test. […]

A further test deals with NCI-H630 cells. In words: Liver adhesion assay on frozen sections of grossly normal human liver. The class given is cell-based. The note with it: liver sections from 27 patients, versus control peptide, 30 minutes. The procedure:
(§2) (FIG. 10A, […]) The receptor side: α6 integrin and E-cadherin are involved in the adhesion of metastatic CRC cells to the liver. HepG2 and NCI-H630 cells were incubated on 10-μm frozen sections of grossly normal human liver and adhered cells were fixed, stained and counted under a light microscope at 20× magnification. Photomicrographs representative of cell numbers (120 minutes' incubation) and morphology (5 days' incubation) are shown. The dotted line indicates a micrometastasis-like structure integrated into the hepatic tissue; arrowheads point to cell aggregates. Tissues were counterstained with hematoxylin (FIG. 10A). NCI-H630 cells silenced for ITGA6, CDH1 or both of these mRNAs were challenged in the same assay (FIG. 10B). Results are shown as mean±standard deviation for each experimental point in 3 independent experiments. (FIG. 10C) The ligand side: the […] (SEQ ID NO: 14) motif and angiopoietin-like 6 interact specifically with cells expressing the receptor proteins. Phage binding was investigated on NCI-H630 cells in which ITGA6, CDH1 or both mRNAs were silenced. Results, normalized to fd-tet binding, are shown as mean±standard deviation of 4 independent experiments. The same cells were evaluated for their capacity to adhere to the […] […] After 48 hours, cells on the lower side of the transwell membranes were fixed, stained and counted under a light microscope at 5× magnification. […] (SEQ ID NO: 14) or control peptide; after 30 minutes, adhered cells were fixed, stained and counted under a light microscope at 5× magnification. For NCI-H630, adhesion was evaluated on liver sections from 27 patients (Patient Ids: P29, P30, P33, P34, P35, P36, P56-76) and results are shown as the ratio of attached cells in the presence of […] […] In FIG. 10A-D, FIG. 10F and FIG. 10G, differences in the experimental points were evaluated for their statistical significance by the use of ANOVA followed by Bonferroni's post-test. […] Fourteen days after surgery, animals were sacrificed and livers were explanted and photographed for the quantification of external tumor areas. […]

For a further test, the system named is primary CRC cell lines. The test is described as above. The format is cell-based. The procedure:
as §2

Test [2] concerns U293 cells stably overexpressing E-cadherin, α6 integrin or both. In words: Cell proliferation assay (crystal violet). The format is cell-based, human. The note with it: 100 μM peptide, complete (10% FCS) medium; FIG. 12. The procedure: U293 cells stably overexpressing E-cadherin, α6 integrin or both were grown in complete (10% FCS) culture medium in the presence of either the control or […] (SEQ ID NO: 14) peptide. At 24 hour time points, cells were fixed and stained with crystal violet; their numbers were estimated by spectrophotometric evaluation. Results are shown as mean±standard deviation for each experimental point in 2 independent experiments.
To test the effects of peptides on cell proliferation, we seeded 2×10^4 cells per well in a 24-well plate, in the presence of either control or […] (SEQ ID NO: 14) peptide (100 μM). At the indicated time points, cells were fixed in glutaraldehyde, stained in crystal violet, and solubilized in 10% acetic acid. Cell growth was evaluated by absorbance at 590 nm in a microplate reader (Perkin Elmerm Waltham, Mass.). A calibration curve was set up with known numbers of cells and a linear correlation between absorbance and cell counts was established up to 5×10^5 cells/well.

A further test relates to LS-174T cells. The test is described as follows: Hepatic colonization model, intrahepatic injection of CRC cells with soluble peptide. The class given is in vivo, CD-1 nude mice. The note with it: LS-174T intrahepatic, 14 days. Here is the method:
as §1

Test [3] has as its system HCCM-1544 tumor and CRC cell lines (HCT-116m, SW-48, DLD-1, LS-174T). In words: Liver homing model, intrasplenic implantation of CRC cells with soluble peptide. The note with it: 100 μM peptide co-injected, significant in all models except DLD-1. The class given is in vivo, CD-1 nude mice. The text has this: To obtain an in vivo model of metastatic CRC, we implanted the patient-derived HCCM-1544 tumor as well as different CRC cell lines (HCT-116m, SW-48, DLD-1 and LS-174T) intrasplenically into CD-1 nude mice (2×10^6/mouse). To evaluate the effect of […] (SEQ ID NO: 14) on liver metastasis, we injected cells either in medium alone (vehicle) or in the presence of the soluble peptide ([…]) (SEQ ID NO: 14). At the indicated time points, mice were euthanized and their livers and spleens were explanted. Livers were photographed for the quantification of external metastatic areas. Representative pictures of whole livers from 2 mice/group are shown for macroscopic evaluation of tumor morphology; the indicated p-values are referred to statistical analysis performed either with Fisher's exact test (in black) or t-test (in red). Spleen (primary tumor) and liver (metastasis) samples were OCT-frozen, cut in 10-μm sections and immunostained with anti-α6 integrin and anti-E-cadherin antibodies, followed by imaging with a confocal microscope. […]
Six-week female CD1-nude mice were purchased from Charles River (Lecco, Italy). […] Mice were strictly monitored until completely awake, and oral ampicillin was administered for 5 days following the surgery. […] External metastatic areas were quantified using ImageJ software.

Test [4] deals with U293 cells stably transduced with α6 integrin, E-cadherin or both. The test is described as follows: Transwell migration toward an angiopoietin-like 6 gradient. The format is cell-based, human. The note with it: 48 hours. The procedure: as §1

The record followed here is patent US20150218213A1, “INHIBITORS OF ALPHA6 INTEGRIN/E-CADHERIN COMPLEX” (Università degli Studi di Torino, priority 2012, published 2015).

Regarding “CGIYRLRSC (Peptide inhibiting the E-cadherin/alpha6 integrin complex) [Targeting synthetic LRS-motif peptide, from New England Peptides]”, the “integrin subunit content of peptide- and phage-targeted protein fractions” value in the test on β4 integrin subunit was “substantial enrichment in the β4 subunit”. In addition, the “cell adherence to microwells coated with peptide” value in test [1] (NCI-H630 with ITGA6 or both mRNAs silenced, most pronounced with both downmodulated) is on record as “impaired adherence”. For the same molecule, the “cell adhesion to human liver sections” value in the test on NCI-H630 cells was “significant decrease in cell adhesion”. Besides, in the test on primary CRC cell lines (HCT-116m, HT-29, SW-48 and DLD-1), the “adhesiveness on hepatic tissues” value is “significantly inhibited”. Moreover, the “adhesion to normal hepatic tissues” value with primary CRC cell lines (non-metastatic HCT-116 cells) is listed as “not influenced”. In addition, in test [2], the cell proliferation entry is given as “no effects”. Besides, the “liver tumors (external tumor areas)” value in the test on LS-174T cells (100 μM peptide co-injected) was “significant reduction of liver tumors”. For the same molecule, the “overall morphology and levels of receptor complex in the tumors” value with LS-174T cells is “unchanged”. The “homing of CRC cells to the liver (liver metastases)” value in test [3] is on record as “diminished homing of CRC cells to the liver”.

B1: angiopoietin-like 6: secreted factor; recombinant protein from Alexis Biochemicals, or produced by transduced U293 cells (protein)
chain: RAGAPRCTYTFVLPPQKFTGAVCWSGPASTRATPEAANASELAALRMRVGRHEELLRELQRLAAADGAVAGEVRALRKESRGLSARLGQLRAQLQHEAGPGAGPGADLGAEPAAALALLGERVLNASAEAQRAAARFHQLDVKFRELAQLVTQQSSLIARLERLCPGGAGGQQQVLPPPPLVPVVPVRLVGSTSDTSRMLDPAPEPQRDQTQRQQEPMASPMPAGHPAVPTKPVGPWQDCAEARQAGHEQSGVYELRVGRHVVSVWCEQQLEGGGWTVIQRRQDGSVNFFTTWQHYKAGFGRPDGEYWLGLEPVYQLTSRGDHELLVLLEDWGGRGARAHYDGFSLEPESDHYRLRLGQYHGDAGDSLSWHNDKPFSTVDRDRDSYSGNCALYQRGGWWYHACAHSNLNGVWHHGGHYRSRYQDGVYWAEFRGGAYSLRKAAMLIRPLKL
As to B1, the “cell binding to microwells coated with recombinant protein” value in test [1] (NCI-H630 cells in which both mRNAs were silenced) was “significantly lower binding”. Besides, the “cell migration toward ligand gradient” value in test [4] (U293 cells expressing both α6 integrin and E-cadherin) was “significantly stimulated”; in test [4] (U293 cells with either α6 integrin or E-cadherin) it was “not influenced”.
